Active and inactive are the calls of the source. Cut-off read from the data, not from the text of the source: actives have a measured Kd and inactives only a lower limit.
Tests used:
[1] = target: Calcium/calmodulin-dependent protein kinase type II subunit delta (Homo sapiens, UniProt Q13557)
[2] = target: Mitogen-activated protein kinase kinase kinase 1 (Homo sapiens, UniProt Q13233)
[3] = target: T1, Serine/threonine-protein kinase PLK4 (Homo sapiens, UniProt O00444)
T1 sequence (O00444 whole entry): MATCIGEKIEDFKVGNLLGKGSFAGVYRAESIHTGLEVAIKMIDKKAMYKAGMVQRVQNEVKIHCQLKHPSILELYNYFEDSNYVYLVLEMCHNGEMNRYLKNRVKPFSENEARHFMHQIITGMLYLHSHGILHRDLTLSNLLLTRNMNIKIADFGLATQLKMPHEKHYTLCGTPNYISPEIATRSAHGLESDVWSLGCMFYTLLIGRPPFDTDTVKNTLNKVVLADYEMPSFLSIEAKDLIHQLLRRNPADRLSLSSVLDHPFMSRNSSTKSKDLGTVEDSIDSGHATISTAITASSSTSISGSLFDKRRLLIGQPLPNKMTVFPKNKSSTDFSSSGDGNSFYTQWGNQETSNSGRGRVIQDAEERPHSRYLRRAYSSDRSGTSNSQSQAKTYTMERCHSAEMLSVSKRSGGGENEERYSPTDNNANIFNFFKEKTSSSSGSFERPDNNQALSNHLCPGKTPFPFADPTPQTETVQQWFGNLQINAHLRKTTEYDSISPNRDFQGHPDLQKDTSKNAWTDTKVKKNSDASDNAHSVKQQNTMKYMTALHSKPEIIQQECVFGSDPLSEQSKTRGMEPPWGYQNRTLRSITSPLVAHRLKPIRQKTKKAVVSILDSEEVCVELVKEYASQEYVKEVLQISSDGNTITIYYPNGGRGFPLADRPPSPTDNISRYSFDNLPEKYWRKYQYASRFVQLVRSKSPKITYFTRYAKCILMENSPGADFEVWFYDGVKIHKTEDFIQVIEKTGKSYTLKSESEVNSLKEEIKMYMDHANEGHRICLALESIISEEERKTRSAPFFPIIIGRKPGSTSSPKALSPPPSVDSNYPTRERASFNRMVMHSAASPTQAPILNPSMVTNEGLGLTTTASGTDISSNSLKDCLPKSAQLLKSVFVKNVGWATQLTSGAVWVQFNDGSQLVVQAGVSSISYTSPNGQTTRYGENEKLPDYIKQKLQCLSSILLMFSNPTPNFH

[4] = target: T2, Serine/threonine-protein kinase TAO3 (Homo sapiens, UniProt Q9H2K8)
T2 sequence (Q9H2K8 whole entry): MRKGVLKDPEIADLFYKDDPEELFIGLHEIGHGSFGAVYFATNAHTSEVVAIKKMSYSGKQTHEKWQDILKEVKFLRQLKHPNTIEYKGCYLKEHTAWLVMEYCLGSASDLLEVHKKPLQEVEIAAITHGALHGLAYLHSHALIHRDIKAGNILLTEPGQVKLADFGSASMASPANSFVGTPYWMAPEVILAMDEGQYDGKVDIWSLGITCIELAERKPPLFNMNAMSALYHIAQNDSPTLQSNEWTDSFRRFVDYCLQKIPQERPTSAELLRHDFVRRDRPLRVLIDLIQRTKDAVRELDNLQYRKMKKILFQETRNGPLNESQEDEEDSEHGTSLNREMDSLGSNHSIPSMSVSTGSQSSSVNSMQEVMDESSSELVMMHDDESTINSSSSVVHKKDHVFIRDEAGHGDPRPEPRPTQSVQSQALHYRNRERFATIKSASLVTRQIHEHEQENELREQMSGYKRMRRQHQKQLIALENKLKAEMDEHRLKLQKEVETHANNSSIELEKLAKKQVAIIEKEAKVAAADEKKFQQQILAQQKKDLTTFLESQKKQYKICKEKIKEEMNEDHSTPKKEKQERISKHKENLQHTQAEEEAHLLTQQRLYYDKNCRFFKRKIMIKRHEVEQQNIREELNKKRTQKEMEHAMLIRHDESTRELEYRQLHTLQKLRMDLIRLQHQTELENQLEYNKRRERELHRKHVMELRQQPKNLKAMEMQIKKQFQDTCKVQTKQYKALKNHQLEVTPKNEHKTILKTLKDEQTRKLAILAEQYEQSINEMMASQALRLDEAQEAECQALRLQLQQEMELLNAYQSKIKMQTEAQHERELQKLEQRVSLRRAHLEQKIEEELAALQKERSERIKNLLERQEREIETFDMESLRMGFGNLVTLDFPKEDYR

[5] = target: T3, General transcription and DNA repair factor IIH helicase subunit XPD (Homo sapiens, UniProt P18074); settings: read-out: Kd apparent; k-562, colo 205, sk-n-be(2) and mv-4-11
T3 sequence (P18074 whole entry): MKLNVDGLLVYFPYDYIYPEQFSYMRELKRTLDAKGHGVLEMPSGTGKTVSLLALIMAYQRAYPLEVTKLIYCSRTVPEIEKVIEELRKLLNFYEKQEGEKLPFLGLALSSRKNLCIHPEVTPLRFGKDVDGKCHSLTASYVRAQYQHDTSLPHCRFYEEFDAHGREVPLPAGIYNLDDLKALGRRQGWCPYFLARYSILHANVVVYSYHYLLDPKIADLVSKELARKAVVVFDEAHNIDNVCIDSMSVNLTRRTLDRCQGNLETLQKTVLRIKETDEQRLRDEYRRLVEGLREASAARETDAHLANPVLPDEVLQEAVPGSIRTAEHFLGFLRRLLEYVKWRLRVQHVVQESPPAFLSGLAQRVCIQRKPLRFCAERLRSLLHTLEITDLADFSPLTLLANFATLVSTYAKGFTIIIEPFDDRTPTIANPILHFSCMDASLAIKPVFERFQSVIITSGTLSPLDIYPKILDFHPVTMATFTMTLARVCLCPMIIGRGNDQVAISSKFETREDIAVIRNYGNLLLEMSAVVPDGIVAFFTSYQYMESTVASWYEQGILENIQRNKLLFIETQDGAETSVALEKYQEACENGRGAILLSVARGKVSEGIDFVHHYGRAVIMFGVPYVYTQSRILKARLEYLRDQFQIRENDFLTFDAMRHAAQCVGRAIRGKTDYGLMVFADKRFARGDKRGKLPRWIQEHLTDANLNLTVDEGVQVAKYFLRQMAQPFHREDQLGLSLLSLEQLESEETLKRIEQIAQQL
Note: in the data inactive means no Kd found up to 30 µM.

Chain of Calcium/calmodulin-dependent protein kinase type II subunit delta (Q13557 whole entry): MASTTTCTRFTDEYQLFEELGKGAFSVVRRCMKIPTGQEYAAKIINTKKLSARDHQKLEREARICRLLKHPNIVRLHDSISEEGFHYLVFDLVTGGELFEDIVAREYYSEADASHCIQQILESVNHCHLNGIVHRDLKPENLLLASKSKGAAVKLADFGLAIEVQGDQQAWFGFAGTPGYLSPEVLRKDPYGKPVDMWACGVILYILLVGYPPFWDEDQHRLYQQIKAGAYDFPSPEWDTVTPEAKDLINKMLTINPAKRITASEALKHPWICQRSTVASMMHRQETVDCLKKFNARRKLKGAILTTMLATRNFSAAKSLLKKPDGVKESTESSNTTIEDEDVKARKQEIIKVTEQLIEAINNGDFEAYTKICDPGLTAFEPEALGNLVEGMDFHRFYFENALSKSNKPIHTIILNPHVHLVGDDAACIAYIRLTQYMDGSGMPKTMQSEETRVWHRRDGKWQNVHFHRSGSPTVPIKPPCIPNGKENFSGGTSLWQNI
Chain of Mitogen-activated protein kinase kinase kinase 1 (Q13233 whole entry): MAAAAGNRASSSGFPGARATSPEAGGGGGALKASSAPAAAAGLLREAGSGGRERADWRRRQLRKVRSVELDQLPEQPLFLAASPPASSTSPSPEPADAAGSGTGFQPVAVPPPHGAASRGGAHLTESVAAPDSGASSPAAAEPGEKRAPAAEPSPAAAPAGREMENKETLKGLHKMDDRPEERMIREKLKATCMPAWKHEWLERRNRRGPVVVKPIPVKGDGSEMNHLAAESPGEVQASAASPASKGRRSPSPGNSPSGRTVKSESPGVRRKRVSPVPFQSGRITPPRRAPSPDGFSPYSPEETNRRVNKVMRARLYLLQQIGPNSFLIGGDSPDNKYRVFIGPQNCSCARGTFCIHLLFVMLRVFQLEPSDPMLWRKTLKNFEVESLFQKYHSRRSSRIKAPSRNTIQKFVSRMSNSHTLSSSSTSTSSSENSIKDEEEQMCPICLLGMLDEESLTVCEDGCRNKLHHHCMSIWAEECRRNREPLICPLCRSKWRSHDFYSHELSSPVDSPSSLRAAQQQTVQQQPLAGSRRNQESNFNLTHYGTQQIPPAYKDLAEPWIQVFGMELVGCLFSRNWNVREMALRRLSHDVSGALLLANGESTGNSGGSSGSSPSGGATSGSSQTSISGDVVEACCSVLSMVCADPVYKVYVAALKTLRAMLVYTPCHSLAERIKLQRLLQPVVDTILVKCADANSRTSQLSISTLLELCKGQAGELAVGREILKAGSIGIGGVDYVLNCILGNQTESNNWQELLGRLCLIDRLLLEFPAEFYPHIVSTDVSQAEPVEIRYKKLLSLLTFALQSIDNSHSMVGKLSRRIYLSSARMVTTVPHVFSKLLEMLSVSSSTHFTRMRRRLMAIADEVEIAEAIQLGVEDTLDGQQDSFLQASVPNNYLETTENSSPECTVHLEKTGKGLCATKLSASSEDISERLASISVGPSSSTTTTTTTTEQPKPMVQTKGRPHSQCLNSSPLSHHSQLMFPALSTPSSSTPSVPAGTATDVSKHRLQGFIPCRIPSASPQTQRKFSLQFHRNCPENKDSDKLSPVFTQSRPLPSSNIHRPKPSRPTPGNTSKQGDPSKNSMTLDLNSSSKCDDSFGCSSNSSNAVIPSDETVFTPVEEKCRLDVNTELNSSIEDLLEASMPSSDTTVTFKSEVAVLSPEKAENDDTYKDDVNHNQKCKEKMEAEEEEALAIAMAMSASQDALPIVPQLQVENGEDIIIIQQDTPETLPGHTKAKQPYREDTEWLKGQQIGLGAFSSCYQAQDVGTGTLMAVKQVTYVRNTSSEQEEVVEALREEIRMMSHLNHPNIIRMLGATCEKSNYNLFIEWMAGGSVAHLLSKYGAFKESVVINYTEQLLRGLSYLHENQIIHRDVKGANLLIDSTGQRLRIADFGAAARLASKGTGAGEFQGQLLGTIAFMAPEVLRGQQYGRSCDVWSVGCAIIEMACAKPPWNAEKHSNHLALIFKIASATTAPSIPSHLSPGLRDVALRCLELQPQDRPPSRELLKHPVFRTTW

| Kd [1] | Kd [2] | Kd [3] | Kd [4] | Kd [5] | Structure (SMILES) |
| --- | --- | --- | --- | --- | --- |
| > 30 µM (inactive) | > 30 µM (inactive) | 1.61 µM (active) | > 30 µM (inactive) | > 30 µM (inactive) | Cc1ccc(C(=O)Nc2ccc(Oc3cc4cnn(C)c4cc3-c3cn[nH]c3)c(F)c2)c(=O)n1-c1ccc(F)cc1 [MERESTINIB] |
| > 30 µM (inactive) | > 30 µM (inactive) | > 30 µM (inactive) | > 30 µM (inactive) | > 30 µM (inactive) | Cn1c(=O)n(-c2ccc(C(C)(C)C#N)cc2)c2c3cc(-c4cnc5ccccc5c4)ccc3ncc21 [DACTOLISIB] |
| > 30 µM (inactive) | > 30 µM (inactive) | > 30 µM (inactive) | > 30 µM (inactive) | > 30 µM (inactive) | Cc1cc(-c2cc(OC(=O)c3ccccc3)ccc2Cl)cc2nnc(Nc3ccc(OCCN4CCCC4)cc3)nc12 [TG100-801] |
| > 30 µM (inactive) | > 30 µM (inactive) | > 30 µM (inactive) | > 30 µM (inactive) | > 30 µM (inactive) | COc1cccc2cc(-c3nc([C@H]4CC[C@H](C(=O)O)CC4)n4ncnc(N)c34)[nH]c12 [OSI-027] |
| > 30 µM (inactive) | > 30 µM (inactive) | > 30 µM (inactive) | > 30 µM (inactive) | > 30 µM (inactive) | Cc1cc(C(=O)Nc2cc(Oc3ccc4nc(NC(=O)C5CC5)cn4n3)ccc2C)n(C)n1 [TAK-593] |
| > 30 µM (inactive) | > 30 µM (inactive) | > 30 µM (inactive) | > 30 µM (inactive) | > 30 µM (inactive) | NC(=O)c1ccc(N(C(N)=O)c2c(F)cccc2F)nc1-c1ccc(F)cc1F [VX-702] |
| > 30 µM (inactive) | > 30 µM (inactive) | > 30 µM (inactive) | > 30 µM (inactive) | > 30 µM (inactive) | c1cc(OCCN2CCCCC2)cc(-c2n[nH]c3ccc(-c4nc[nH]n4)cc23)c1 [CC-401] |

| Structure (SMILES) | Kd [1] | Kd [2] | Kd [3] | Kd [4] | Kd [5] |
| --- | --- | --- | --- | --- | --- |
| CNC(=O)c1ccc(Nc2ncc(C(F)(F)F)c(NCc3nccnc3N(C)S(C)(=O)=O)n2)cc1 [DEFACTINIB] | > 30 µM (inactive) | > 30 µM (inactive) | > 30 µM (inactive) | 10.8 µM (active) | 2.26 µM (active) |
| CN1CCN(c2nc(C3=C(c4c[nH]c5ccccc45)C(=O)NC3=O)c3ccccc3n2)CC1 [SOTRASTAURIN] | > 30 µM (inactive) | > 30 µM (inactive) | > 30 µM (inactive) | > 30 µM (inactive) | > 30 µM (inactive) |

Reference: ChEMBL document CHEMBL3991601, “The target landscape of clinical kinase drugs” (Science, 2017)
